Experimental data published in paper PMC5814057, “Folic acid derived-P5779 mimetics regulate DAMP-mediated inflammation through disruption of HMGB1:TLR4:MD-2 axes” (PLoS ONE, 2018).

Assays:
MD-2 = target: T1, MD-2 (Homo sapiens, UniProt Q9Y6Y9); assay: SPR direct binding to immobilized MD-2 (Biacore T200); settings: MD-2 immobilized on CM5 chip
T1 construct: purchased R&D Systems 1787-MD
T1 sequence (Q9Y6Y9 19-160): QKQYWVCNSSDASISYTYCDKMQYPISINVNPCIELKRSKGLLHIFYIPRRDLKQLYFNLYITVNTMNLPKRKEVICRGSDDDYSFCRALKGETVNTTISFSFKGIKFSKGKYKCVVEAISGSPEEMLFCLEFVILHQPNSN
Protocol: (§1) Biacore T200 (GE Healthcare, USA) was used for real-time binding interaction studies. […] For binding analyses, CM5 series chips (GE Healthcare) were activated and the reference flow-cell was blocked by 1 M ethanolamine (pH = 8.5). The ligand protein MD-2 dilution (10 ug/mL in 10 mM Acetate buffer pH 5) or HMGB1 (20 ug/mL in 10 mM acetate buffer pH = 4.5) or TLR4/MD2 complex (10 ug/mL in 10 mM acetate buffer pH 4.5) were subjected to the sample flow-cell at the flow rate of 10 uL/min until the surface Plasmon resonance reached 1000–2000 RU. Analytes (Folic acid analogues) diluted into 5 different concentrations were sequentially injected at a flow rate of 30uL/min for 60s or 120s (TLR4/MD-2). The dissociation time was set for 1 minute or 2 minutes (TLR4/MD-2). The equilibrium dissociation constant (KD) was obtained to evaluate the binding affinity by using the BIAEvaluation 2.0 software (GE Healthcare) supposing a 1:1 binding ratio. At least 3 independent experiments were performed.

HMGB1 = assay: SPR direct binding to immobilized HMGB1
Protocol: as §1

[1] = Stability of compound noted for the SPR experiment; type: physicochemical; settings: excluded from the SPR experiment
TLR4/MD-2 complex = target: T2, TLR4/MD-2 complex (Homo sapiens, UniProt O00206+Q9Y6Y9); assay: SPR direct binding to immobilized TLR4/MD-2 complex; settings: TLR4/MD-2 complex immobilized
T2 construct: purchased R&D Systems 3146-TM-050
Protocol: Biacore T200 (GE Healthcare, USA) was used for real-time binding interaction studies. Recombinant human TLR4/MD2 (R&D 3146-TM-050) complex protein and MD2 (R&D 1787-MD) protein were purchased from R&D Systems (Minneapolis, USA). For binding analyses, CM5 series chips (GE Healthcare) were activated and the reference flow-cell was blocked by 1 M ethanolamine (pH = 8.5). The ligand protein MD-2 dilution (10 ug/mL in 10 mM Acetate buffer pH 5) or HMGB1 (20 ug/mL in 10 mM acetate buffer pH = 4.5) or TLR4/MD2 complex (10 ug/mL in 10 mM acetate buffer pH 4.5) were subjected to the sample flow-cell at the flow rate of 10 uL/min until the surface Plasmon resonance reached 1000–2000 RU. Analytes (Folic acid analogues) diluted into 5 different concentrations were sequentially injected at a flow rate of 30uL/min for 60s or 120s (TLR4/MD-2). The dissociation time was set for 1 minute or 2 minutes (TLR4/MD-2). The equilibrium dissociation constant (KD) was obtained to evaluate the binding affinity by using the BIAEvaluation 2.0 software (GE Healthcare) supposing a 1:1 binding ratio. At least 3 independent experiments were performed.

T2 sequence (O00206 24-631 limits assumed): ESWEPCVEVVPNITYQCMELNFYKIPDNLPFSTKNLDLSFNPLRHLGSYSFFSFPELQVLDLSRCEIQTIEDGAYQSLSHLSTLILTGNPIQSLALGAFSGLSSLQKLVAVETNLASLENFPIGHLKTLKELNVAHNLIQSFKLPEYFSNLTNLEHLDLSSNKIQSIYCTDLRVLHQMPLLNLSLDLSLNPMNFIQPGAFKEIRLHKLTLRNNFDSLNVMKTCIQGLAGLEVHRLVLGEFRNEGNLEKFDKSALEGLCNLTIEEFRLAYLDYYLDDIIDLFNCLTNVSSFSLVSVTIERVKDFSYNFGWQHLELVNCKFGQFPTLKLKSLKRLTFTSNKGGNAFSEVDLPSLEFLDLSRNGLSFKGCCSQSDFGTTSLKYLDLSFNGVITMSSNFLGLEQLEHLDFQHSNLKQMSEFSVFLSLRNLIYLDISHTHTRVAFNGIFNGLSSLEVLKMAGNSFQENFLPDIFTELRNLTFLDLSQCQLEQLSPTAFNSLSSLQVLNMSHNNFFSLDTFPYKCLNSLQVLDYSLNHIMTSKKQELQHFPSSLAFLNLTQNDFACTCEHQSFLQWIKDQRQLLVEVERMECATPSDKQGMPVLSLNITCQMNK
T2 sequence (Q9Y6Y9 17-160 limits assumed): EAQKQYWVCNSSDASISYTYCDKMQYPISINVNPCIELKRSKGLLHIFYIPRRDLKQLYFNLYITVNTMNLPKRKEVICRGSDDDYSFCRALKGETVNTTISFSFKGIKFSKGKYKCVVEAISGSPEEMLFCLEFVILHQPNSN

| Kd (MD-2; 1:1 binding) | Compound | Kd (MD-2) | also measured |
| --- | --- | --- | --- |
| 15000 nM | Nc1nc2c(c(=O)[nH]1)N(C=O)C(CNc1ccc(C(=O)N[C@@H](CCC(=O)O)C(=O)O)cc1)CN2 (stereo partly drawn) [Leucovorin, leucovorin] | – | – |
| – | Nc1nc(N)c2nc(CNc3ccc(C(=O)N[C@@H](CCC(=O)O)C(=O)O)cc3)cnc2n1 [Aminopterin, aminopterin] | 301 nM | – |
| – | CN(Cc1cnc2nc(N)nc(N)c2n1)c1ccc(C(=O)N[C@@H](CCC(=O)O)C(=O)O)cc1 [Methotrexate, methotrexate] | 214 nM | binding to HMGB1 (HMGB1): no binding |
| – | Nc1nc(=O)c2c([nH]1)NCC(CNc1ccc(C(=O)NC(CCC(=O)O)C(=O)O)cc1)N2 (stereo not drawn) [Tetrahydrofolic acid, tetrahydrofolic acid] | – | stability [1]: decomposition over time |
| 2390 nM | Nc1nc(=O)c2nc(CNc3ccc(C(=O)N[C@@H](CCC(=O)O)C(=O)O)cc3)cnc2[nH]1 [Folic acid, folic acid] | – | binding to MD-2 (in words) (MD-2): moderate binding; Kd (TLR4/MD-2 complex): 537 nM |
| 1870 nM | C#CCC(Cc1cnc2nc(N)nc(N)c2n1)c1ccc(C(=O)N[C@@H](CCC(=O)O)C(=O)O)cc1 (stereo partly drawn) [Pralatrexate, pralatrexate] | – | – |
